Results: patent US11419833B2, “Nasally administered pharmaceutical composition for the treatment of epilepsy and related disorders” (priority 2020, dated 2022)
“Also recorded” adds a separate entry of the source.

How the values were obtained:
glutamate levels = assay: Glutamate levels (ELISA) in PTZ-induced acute seizure; assay type: in vivo, rats; conditions: cortex and hippocampus, p<0.01
Source text: Glutamate levels were also estimated in cortex and hippocampus following the administration of Z-acid formulation I. The glutamate levels were estimated using ELISA kit method (Bioassay Technology Laboratory, E1474Ra).

Cfos = Cfos gene expression (qRT-PCR) in PTZ-induced acute seizure; assay type: in vivo, rats; conditions: cortex and hippocampus, p<0.01
Source text: (§1) Rats were decapitated after recording the EEG to collect the brain samples. Cortex and hippocampus regions of brain were excised out to conduct analysis of gene expression using qRT-PCR. The tissue samples were processed for RNA isolation followed by synthesis of cDNA using Revert Aid First strand cDNA synthesis kit (Thermo Scientific). The template cDNA were then used for the amplification of BDNF and Cfos using SYBER green qPCR Master mix (Thermo Scientific). The relative gene expression was determined by comparing 2-ΔΔCt values normalized to β-actin.

BDNF = BDNF gene expression (qRT-PCR) in PTZ-induced acute seizure; assay type: in vivo, rats; conditions: cortex and hippocampus, p<0.01
Source text: as §1

Stability = assay type: physicochemical
PTZ-induced seizures = assay: Acute subcutaneous PTZ-induced seizure test; assay type: in vivo, mice
Protocol: Anticonvulsant effects of the test compounds were evaluated using subcutaneous PTZ-induced seizure test (subcutaneous PTZ). […] The Z-acid and its analogs were administered intraperitoneally at least 30 min before subcutaneous administration of convulsive dose of PTZ (110 mg/kg). […] Latency to PTZ-induced threshold seizures was also calculated. The latency to threshold seizure is defined as the interval between the time of the PTZ-injection and the occurrence of first episode of threshold seizure. Protection of testing material against PTZ-induced mortality within 24 hours was also evaluated. […] NMRI male mice weighing between 18-22 g were selected for the study. PTZ 110 mg/Kg was administered to the PTZ group and observed the first myoclonic jerk and HLTE.

[1] = test system: PTZ-induced epileptiform activity; assay: PTZ-induced epileptiform activity, intraperitoneal administration (EEG protocol); assay type: in vivo, rats; conditions: for spike discharge: Z-acid 150 mg/kg i.p. or diazepam 5 mg/kg, 10 min after PTZ 100 mg/kg, vs PTZ-injected animals, P<0.01
Protocol: In this set of experiment, effect of Z-acid was investigated on PTZ-induced epileptiform activity. Rats (210±10 g) were divided into six groups as control, diazepam, Z-acid, PTZ, PTZ+diazepam, PTZ+Z-acid with 6 sample size in each group. PTZ was injected at the dose of 100 mg/kg. Z-acid was intraperitoneally injected in anesthetized rats at the dose of 150 mg/kg whereas drug control group was treated with 5 mg/kg dose of diazepam. Saline was used as placebo. PTZ was prepared in saline whereas Z-acid was dissolved in 0.1 N NaOH. EEG was recorded from cortical region of the rat brain.
The protocol was started by anesthetizing rat followed by fixing the animal in stereotaxic apparatus for surgery. The skin was removed to expose the bregma and lambda region of the skull. Three holes of 0.6 mm diameter were drilled with the help of a manual drill. One hole was made on the parietal lobe for the placement of active electrode whereas two were made on the occipital lobes for reference and ground electrodes. A screw with the length of 5 mm and diameter of 0.5 mm was inserted on each hole and electrodes were then connected with the EEG recording system. The recording was started by monitoring the baseline EEG recording for 5 min. After 5 min of noise-free recording, PTZ was injected to induce acute seizures. The EEG recording after the injection of PTZ was continued for 10 min to observe the induction of epileptiform activity. […] After 10 min of recording, Z-acid was injected intraperitoneally to observe its effects on PTZ-induced epileptiform activity.

[2] = Pharmacokinetics in plasma and brain after single intraperitoneal dose (GC/MS); assay type: in vivo; conditions: mice, 300 mg/kg intraperitoneal
Protocol: The pharmacokinetics of Z-acid in both plasma and brain after a single intraperitoneal dose of Z-acid (300 mg/kg) was studied in mice. Animals were sacrificed at 5 min, 15 min, 30 min, 60 min, 120 min, 180 min, and 240 min after the dose administration (n=4 for each time point). Blood samples were obtained in heparin containing vacutainers. The control group consists of the animals receiving no other treatment and this serve as blank plasma and aided in optimization and validation of the GC/MS method. The blood samples were later centrifuged to obtain plasma which was stored at −20° C. for further processing. Likewise, the brain samples were also collected from the sacrificed animals and stored at −20° C. for further processing on GC-MS.

PTZ-induced kindling = assay: scPTZ-induced chemical kindling model of epileptogenesis; assay type: in vivo, NMRI mice
Protocol: The chemical kindling was induced according to the modified method of De Sarro i.e. by repeated treatment of mice with sub-convulsive dose of pentylenetetrazole (subcutaneous, 50 mg/kg) on alternate days. Four doses of Z-acid (150 mg/kg/day, 200 mg/kg/day, 250 mg/kg/day, and 300 mg/kg/day) were administered daily (intraperitoneal). However, on the day of PTZ administration, animals were treated with the Z-acid 30 minutes before administering PTZ. After PTZ was injected, each animal was placed separately in a clear plexiglass cage for close observations for 1 hour. The drug control groups received daily valproic acid. The Racine scoring categorization of epileptic seizures pattern was used to monitor the animals (Table 1). The animals showing score 4-5 were considered to be fully kindled. The cumulative kindling score was then calculated. Experiments were terminated once the animals were fully kindled. At the end of each experiment, animals were humanely sacrificed.

[3] = Sub-chronic toxicity profile, intraperitoneal, 3 months; assay type: in vivo
Protocol: To evaluate the sub-chronic toxicity profile of Z-acid the compound was administered daily into mice at the dose of 300 mg/kg (intraperitoneal) for a period of 3 months. The animals were divided into […] (8 per group) as outlined below: • Group I normal control; • Group II treated daily for 1 week; • Group III treated daily for 2 weeks; • Group IV treated daily for 1 month; • Group V treated daily for 2 months; • Group VI treated daily for 3 months
At the end of the study, animals were anaesthetized, dissected and gross examination of vital organs were performed, along with serum and whole brain samples collection. Serum and brain sample were stored in −20° C. for further examination.

Solubility in water = assay type: physicochemical
[4] = intraperitoneal experiment, vs PTZ alone
[5] = intranasal pre-treatment (Formulation I), vs PTZ
[6] = 300, 400 and 500 mg/Kg intraperitoneal, 30 min before PTZ 110 mg/Kg, compared to PTZ group
[7] = 150 mg/kg intraperitoneal, 10 min after PTZ

CC1=C/C(=C\C(=O)O)CC(C)(C)C1 [Z-acid, (Z)-2-(3,5,5-trimethyl-2-cyclohexen-1-ylidene) acetic acid]
glutamate levels (glutamate levels; intranasal experiment (Formulation I), vs PTZ): significantly reduced | glutamate levels (glutamate levels; [4]): significantly reduced | Cfos gene expression (Cfos; i.p. treatment, vs PTZ alone): significantly reduced | Cfos gene expression (Cfos; [5]): significantly reduced | BDNF gene expression (BDNF; i.p. treatment, vs PTZ alone): significantly reduced | BDNF gene expression (BDNF; [5]): significantly reduced | stability under all conditions used in various experiments (Stability): stable | stability in different organic solvents (Stability; room temperature and high temperature): stable | HLTE (PTZ-induced seizures; [6]): prevented HLTE in all the animals | onset of myoclonic seizure (PTZ-induced seizures; [6]): significantly delayed | seizure scoring (PTZ-induced seizures; 300, 400 and 500 mg/Kg, compared to PTZ group (FIG. 1)): decreased the number seizure scoring significantly and dose dependently | time after administration at which PTZ-induced spikes were significantly reduced [1, 7]: 5 min | time after treatment at which PTZ-induced spikes completely diminished [1, 7]: 7 to 10 min | spike discharge [1]: significantly reduced | persistence or sequestration in brain ([2]; brain): No evidence | time to disappearance from brain ([2]; brain): ≤ 1 h | time to peak concentration in brain ([2]; brain): ≤ 15 min | apparent volume of distribution ([2]; plasma): 10 L | time to disappearance from plasma ([2]; plasma): 2 to 2.5 h | time to peak concentration in plasma ([2]; plasma): ≤ 5 min | half-life ([2]; mouse, ip, plasma): 1 h | development of kindling induced by scPTZ administration (PTZ-induced kindling; 300 mg/kg daily intraperitoneal, PTZ 50 mg/kg on alternate days): complete inhibition | active dose able to inhibit the process of epileptogenesis (PTZ-induced kindling; daily intraperitoneal, doses tested 150-300 mg/kg/day): 300 mg/kg body weight | signs of toxicity, gross anatomy of organs ([3]; 300 mg/kg daily intraperitoneal, 3 months): did not find any sign of toxicity; also recorded: no signs of toxicity | LFT profile, CBC and LDH, creatinine, and urea levels ([3]; blood samples after 3 months daily dosing 300 mg/kg): normal range

CN1C(=O)CN=C(c2ccccc2)c2cc(Cl)ccc21 [diazepam, reference compound]
glutamate levels (glutamate levels; [4]): significantly reduced | Cfos gene expression (Cfos; i.p. treatment, vs PTZ alone): significantly reduced | BDNF gene expression (BDNF; i.p. treatment, vs PTZ alone): significantly reduced | spike discharge [1]: significantly reduced

CCCC(CCC)C(=O)O [valproic acid, reference compound]
seizure pattern till the end of the kindling protocol (PTZ-induced kindling; drug control, daily, compared to PTZ-kindled control group): did not exhibit any seizure pattern

CC1=CC(=CC(=O)O)CC(C)(C)C1 (single isomer, unassigned) [E/Z isomeric mixture, (E/Z)-2,2′-(3,5,5-trimethyl-2-cyclohexen-1-ylidene) acetic acid]
solubility in water (Solubility in water): poorly soluble
